US20180369203A1, “METHODS OF TREATING CANCER BY ADMINISTERING A MEK INHIBITOR IN COMBINATION WITH A PROTEASOME INHIBITOR” (The Jackson Laboratory, priority 2015, published 2018)

What was measured:
A2058 cells = assay: A2058 s.c. melanoma xenograft in NOD/SCID mice; type: in vivo
Protocol: FIGS. 6A-N show combined MEK and proteasome inhibition exerts potent tumor-suppressive effects. (A) After treatments with 20 nM AZD6244, 100 nM Bortezomib, or both for 24 hr, viable cells were quantitated by CellTiter® Blue (mean±SD, n=6, ANOVA). (B and C) 1×10^6 A2058 cells were s.c. injected into NOD/SCID mice. After 7 days, mice were treated with DMSO, 5 mg/Kg AZD6244, 0.5 mg/Kg Bortezomib, or the combination via i.p. injection three times a week. Tumor volumes were measured using a caliper weekly (mean±SEM, ANOVA). Tumor growth curves were fitted to exponential growth models to derive tumor-doubling time (DT). Kaplan-Meier survival curve was plotted for each group (Log-rank test). (D) Proteins were detected by immunoblotting, 3 tumors per group. (E) Tumor lysates were used to quantitate AOs, 5 tumors per group (mean±SD, n=3, ANOVA). (F) Tumor lysates were used to seed Aβ1-42 peptides, 5 tumors per group (mean±SD, n=3, ANOVA). (G-H) Tumor sections were stained with CR, 5 tumors per group. Ten random fields were taken for each section. Scale bar: 50 μm. Total CR fluorescence in each field was quantitated using ImageJ and normalized against total nuclei (median, n=50, ANOVA). (I) Following CR staining, tumor sections were visualized under polarized light microscopy. Scale bar: 50 μm. (J) Following staining with AF-specific antibodies (OC), sections of tumors receiving combined treatment were further stained with CR. Scale bar: 50 μm. […] Body weights were monitored weekly (mean±SD, n=10, ANOVA). […]
FIG. 13A-J illustrates combined MEK and proteasome inhibition disrupts proteostasis and impedes in vivo tumor growth. […] Body weights were recorded before xenografting and at sacrifice. […] Quantitation of immunoblotting results in FIG. 6D (mean±SD, n=3, ANOVA). […] Lys48-specific protein ubiquitination and caspase 3 cleavage were measured by immunoblotting in 3 spleens per group.
A2058 cells were s.c. injected into the left flanks of 9-week-old female NOD.CB17-Prkdc/J (NOD/SCID) mice (The Jackson Laboratory). […] Tumor volumes were calculated following the formula 4/3πR^3. […]

GR-GFP = GR-GFP protein stability in HEK293T cells (immunoblotting); type: cell-based; conditions: 100 nM Bortezomib, 4 hrs
From the text: This figure is related to FIG. 4. (A) HSF1 stabilizes GR-GFP proteins. Both GR-GFP and HA-Ub-K48 plasmids were co-transfected with LacZ or FLAG-HSF1 plasmids into HEK293T cells stably expressing scramble or HSF1-targeting shRNAs. HA-Ub-K48 plasmids encode a mutant ubiquitin that can be conjugated to protein substrates only via lysine 48. GFP-GR proteins were precipitated and ubiquitination was detected by anti-HA immunoblotting. (B) HSF1 maintains cellular chaperoning capacity. Denatured firefly luciferases were incubated with proteins extracted from HEK293T cells stably expressing scramble or HSF1-targeting shRNAs that were transfected with LacZ or FLAG-HSF1 plasmids (mean±SD, n=5, ANOVA). […] Levels of GFP and GR-GFP proteins were detected by immunoblotting. […] Following treatments with 20 μM U0126, 20 nM AZD6244, or 100 nM Bortezomib for 4 hrs, the chymotrypsin-like, trypsin-like, and caspase-like proteasomal activities in A2058 cells (D) and HEK293T cells (E) were measured in vitro using 25 μM Z-LLL-AMC, Boc-LRR-AMC, and Z-LLE-AMC substrates respectively (mean±SD, n=3, ANOVA). […] Lys48-specific protein ubiquitination was detected by immunoblotting in both detergent-soluble and -insoluble fractions. […] Lys48-specific protein ubiquitination was detected by immunoblotting in both detergent-soluble and -insoluble fractions of HEK293T cells that stably expressed scramble or MEK1/2-targeting shRNAs. […]

SMILES: CC(C)C[C@H](NC(=O)[C@H](Cc1ccccc1)NC(=O)c1cnccn1)B(O)O [Bortezomib, bortezomib]
- growth of xenografted melanomas (A2058 cells; 5 mg/Kg AZD6244, 0.5 mg/Kg Bortezomib or combination, i.p. three times a week): no significant impacts
- HSF1 Ser326 phosphorylation and HSP expression in tumors (stress response) (A2058 cells; tumor immunoblotting): induced
- ubiquitination in tumors (A2058 cells; tumor immunoblotting, 3 tumors per group): slightly elevated
- GR-GFP protein level (GR-GFP): caused GR-GFP accumulation
